According to patent US9409905B2, “Antibacterial compounds and methods for use” (PTC THERAPEUTICS, INC., priority 2011, dated 2016):
≈ marks a conversion by molar mass, not a printed value.

Tests used:
E. coli 25922 = test: Antibacterial activity, microbroth dilution MIC (Table 1); type: cell-based, Escherichia coli; conditions: Escherichia coli; microbroth dilution; control Gram-negative E. coli 25922 strain; read-out: MIC, 25922
In short: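 Values are MICs (μg/mL): the smallest drug amount at which macroscopically visible bacterial growth is absent under assay conditions, from a microdilution method in broth.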

E. coli LZ3111 = test: Antibacterial activity, MIC, quinolone resistant strain (Table 2); type: cell-based; conditions: Escherichia coli, LZ3111, read-out: MIC LZ3111
In short: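 MIC values (μg/mL) came from a microbroth dilution assay, scored as the lowest drug concentration at which no growth was visible by eye.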

K. pneumoniae MXX1232 = test: Antibacterial activity, MIC, resistant strain (Table 4); type: cell-based; conditions: Klebsiella pneumoniae, MXX1232; resistant K. pneumoniae MMX1232, multi-drug resistant clinical isolate; read-out: MIC, MMX1232
Source text: (§1) The antibacterial activity from a microbroth dilution method may be presented as the minimum inhibitory concentration (MIC in μg/mL). The MIC value is the lowest concentration of drug which prevents macroscopically visible growth under test conditions.
(§2) Antibacterial activity of test compounds against the Gram-negative Acinetobacter baumannii (A. baumannii) BAA747 and Klebsiella pneumoniae (K. pneumoniae) 35657 bacterium and the resistant A. baumannii MXX2240 and K. pneumoniae MXX1232 strains are shown in Table 4. The MMX strains are multi-drug resistant clinical isolates.

A. baumannii MXX2240 = test: as above; type: cell-based; conditions: Acinetobacter baumannii, MXX2240; resistant A. baumannii MMX2240, multi-drug resistant clinical isolate; read-out: MIC, MMX2240
Source text: as §1, §2

[1] = system: Staphylococcus aureus (S. aureus) 29213; test: Antibacterial activity, microbroth dilution MIC (Table 1); type: cell-based; conditions: microbroth dilution, Gram-positive S. aureus 29213, read-out: MIC, 29213
In short: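 Using broth microdilution, MIC endpoints (μg/mL) mark where visible growth no longer appears; the panel spans sensitive and control Gram-negative strains plus a Gram-positive strain.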

[2] = system: Escherichia coli (E. coli) BAS849; test: as above; type: cell-based; conditions: microbroth dilution, super sensitive Gram-negative E. coli BAS849, read-out: MIC, BAS849
In short: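 Growth inhibition by microbroth dilution. MIC = lowest μg/mL with no visible growth. Strain 25922 is the control Gram-negative; BAS849 is hypersensitive.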

[3] = system: Pseudomonas aeruginosa (P. aeruginosa) 27853; test: Antibacterial activity, MIC (Table 5); type: cell-based; conditions: P. aeruginosa 27853, read-out: MIC, 27853
In short: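 Values are MICs in μg/mL, read as the lowest concentration at which no growth is visible by eye. They were determined by a microbroth dilution method.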

[4] = system: Klebsiella pneumoniae (K. pneumoniae) 35657; test: Antibacterial activity, MIC (Table 4); type: cell-based; conditions: K. pneumoniae 35657, read-out: MIC, 35657
In short: (§3)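 MIC (μg/mL) by microbroth dilution, taken as the lowest drug concentration preventing macroscopically visible growth. MXX strains are multi-drug resistant clinical isolates.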

[5] = system: Acinetobacter baumannii (A. baumannii) BAA747; test: Antibacterial activity, MIC (Table 4); type: cell-based; conditions: A. baumannii BAA747, read-out: MIC, BAA747
In short: as §3

| Structure (SMILES) | MIC (E. coli 25922) [µg/mL] | MIC (E. coli LZ3111) [µg/mL] | MIC (K. pneumoniae MXX1232) [µg/mL] | MIC (A. baumannii MXX2240) [µg/mL] | MIC [1] [µg/mL] | MIC [2] [µg/mL] | MIC [3] [µg/mL] | MIC [4] [µg/mL] | MIC [5] [µg/mL] |
| --- | --- | --- | --- | --- | --- | --- | --- | --- | --- |
| CCc1c(-c2ccc3c4c([nH]c3c2)CCNC4)[nH]c(=O)c(C(=O)O)c1O [Cpd 450, 5-ethyl-4-hydroxy-2-oxo-6-(2,3,4,5-tetrahydro-1H-pyrido[4,3-b]indol-7-yl)-1,2-dihydropyridine-3-carboxylic acid] | 12.5 to 150 (≈ 35.4 to 424 µM) | 12.5 to 150 (≈ 35.4 to 424 µM) | 12.5 to 150 (≈ 35.4 to 424 µM) | 12.5 to 150 (≈ 35.4 to 424 µM) | 12.5 to 150 (≈ 35.4 to 424 µM) | 3.5 to 12.5 (≈ 9.9 to 35.4 µM) | 12.5 to 150 (≈ 35.4 to 424 µM) | 3.5 to 12.5 (≈ 9.9 to 35.4 µM) | 12.5 to 150 (≈ 35.4 to 424 µM) |
| CCCc1ccc2cc(-c3[nH]c(=O)c(C(=O)O)c(O)c3CC)[nH]c2c1 [Cpd 384, 5-ethyl-4-hydroxy-2-oxo-6-(6-propyl-1H-indol-2-yl)-1,2-dihydropyridine-3-carboxylic acid] | 12.5 to 150 (≈ 36.7 to 441 µM) | 12.5 to 150 (≈ 36.7 to 441 µM) | 12.5 to 150 (≈ 36.7 to 441 µM) | 12.5 to 150 (≈ 36.7 to 441 µM) | 12.5 to 150 (≈ 36.7 to 441 µM) | < 1 | 12.5 to 150 (≈ 36.7 to 441 µM) | 12.5 to 150 (≈ 36.7 to 441 µM) | 12.5 to 150 (≈ 36.7 to 441 µM) |
| CCc1c(-c2ccc3c(c2)cc2n3CC(NC)C2)[nH]c(=O)c(C(=O)O)c1O.Cl (stereo not drawn) [Cpd 416, 5-ethyl-4-hydroxy-6-(2-(methylamino)-2,3-dihydro-1H-pyrrolo[1,2-a]indol-7-yl)-2-oxo-1,2-dihydropyridine-3-carboxylic acid hydrochloride] | 12.5 to 150 | 12.5 to 150 | 12.5 to 150 | 12.5 to 150 | 12.5 to 150 | 3.5 to 12.5 | 12.5 to 150 | 12.5 to 150 | 12.5 to 150 |
| CCc1cc(C(=O)O)c(=O)[nH]c1-c1ccc2c(c1)cc(CN(C)Cc1ccccc1)n2C [Cpd 121, 6-(2-((benzyl(methyl)amino)methyl)-1-methyl-1H-indol-5-yl)-5-ethyl-2-oxo-1,2-dihydropyridine-3-carboxylic acid] | 1 to 3.5 (≈ 2.33 to 8.15 µM) | 12.5 to 150 (≈ 29.1 to 349 µM) | 12.5 to 150 (≈ 29.1 to 349 µM) | 12.5 to 150 (≈ 29.1 to 349 µM) | 3.5 to 12.5 (≈ 8.15 to 29.1 µM) | < 1 | 12.5 to 150 (≈ 29.1 to 349 µM) | 3.5 to 12.5 (≈ 8.15 to 29.1 µM) | 1 to 3.5 (≈ 2.33 to 8.15 µM) |
| CCc1cc(C(=O)O)c(=O)[nH]c1-c1ccc2c(c1)cc(CN(CC)CC)n2C [Cpd 123, 6-(2-((diethylamino)methyl)-1-methyl-1H-indol-5-yl)-5-ethyl-2-oxo-1,2-dihydropyridine-3-carboxylic acid] | < 1 | 12.5 to 150 (≈ 32.8 to 393 µM) | 12.5 to 150 (≈ 32.8 to 393 µM) | 12.5 to 150 (≈ 32.8 to 393 µM) | 12.5 to 150 (≈ 32.8 to 393 µM) | < 1 | 12.5 to 150 (≈ 32.8 to 393 µM) | < 1 | 1 to 3.5 (≈ 2.62 to 9.17 µM) |
| CCCc1ccc2cc(-c3[nH]c(=O)c(C(=O)O)c(O)c3CC)n(C)c2c1 [Cpd 410, 5-ethyl-4-hydroxy-6-(1-methyl-6-propyl-1H-indol-2-yl)-2-oxo-1,2-dihydropyridine-3-carboxylic acid] | 12.5 to 150 (≈ 35.3 to 423 µM) | 12.5 to 150 (≈ 35.3 to 423 µM) | 12.5 to 150 (≈ 35.3 to 423 µM) | 12.5 to 150 (≈ 35.3 to 423 µM) | 3.5 to 12.5 (≈ 9.88 to 35.3 µM) | 1 to 3.5 (≈ 2.82 to 9.88 µM) | 12.5 to 150 (≈ 35.3 to 423 µM) | 12.5 to 150 (≈ 35.3 to 423 µM) | 12.5 to 150 (≈ 35.3 to 423 µM) |
| CCc1c(-c2ccc3c(ccn3-c3ccc(N4CCCC4)cc3)c2)[nH]c(=O)c(C(=O)O)c1O [Cpd 440, 5-ethyl-4-hydroxy-2-oxo-6-(1-(4-(pyrrolidin-1-yl)phenyl)-1H-indol-5-yl)-1,2-dihydropyridine-3-carboxylic acid] | 12.5 to 150 (≈ 28.2 to 338 µM) | 12.5 to 150 (≈ 28.2 to 338 µM) | 12.5 to 150 (≈ 28.2 to 338 µM) | 12.5 to 150 (≈ 28.2 to 338 µM) | 12.5 to 150 (≈ 28.2 to 338 µM) | 12.5 to 150 (≈ 28.2 to 338 µM) | 12.5 to 150 (≈ 28.2 to 338 µM) | 12.5 to 150 (≈ 28.2 to 338 µM) | 12.5 to 150 (≈ 28.2 to 338 µM) |
| CCc1c(-c2ccc3c(ccn3-c3ccccc3)c2)[nH]c(=O)c(C(=O)O)c1O [Cpd 435, 5-ethyl-4-hydroxy-2-oxo-6-(1-phenyl-1H-indol-5-yl)-1,2-dihydropyridine-3-carboxylic acid] | 12.5 to 150 (≈ 33.4 to 401 µM) | 12.5 to 150 (≈ 33.4 to 401 µM) | 12.5 to 150 (≈ 33.4 to 401 µM) | 12.5 to 150 (≈ 33.4 to 401 µM) | < 1 | < 1 | 12.5 to 150 (≈ 33.4 to 401 µM) | 12.5 to 150 (≈ 33.4 to 401 µM) | 12.5 to 150 (≈ 33.4 to 401 µM) |
| CCc1c(-c2cn(C)c3ccccc23)[nH]c(=O)c(C(=O)O)c1O [Cpd 14, 5-ethyl-4-hydroxy-6-(1-methyl-1H-indol-3-yl)-2-oxo-1,2-dihydropyridine-3-carboxylic acid] | 12.5 to 150 (≈ 40 to 480 µM) | 12.5 to 150 (≈ 40 to 480 µM) | 12.5 to 150 (≈ 40 to 480 µM) | 12.5 to 150 (≈ 40 to 480 µM) | 3.5 to 12.5 (≈ 11.2 to 40 µM) | 1 to 3.5 (≈ 3.2 to 11.2 µM) | 12.5 to 150 (≈ 40 to 480 µM) | 12.5 to 150 (≈ 40 to 480 µM) | 12.5 to 150 (≈ 40 to 480 µM) |
